Experimental data from patent US9718788B2, “Heteroaryl compounds useful as inhibitors of E1 activating enzymes” (MILLENNIUM PHARMACEUTICALS, INC., priority 2006, dated 2017).

Target: T1, recombinant human NAE enzyme (Homo sapiens, UniProt Q8TBC4)
T1 construct: His (N); made in house; host or cells: Sf9 insect cells (baculovirus, Bac-to-Bac)
T1 sequence (Q8TBC4 1-463): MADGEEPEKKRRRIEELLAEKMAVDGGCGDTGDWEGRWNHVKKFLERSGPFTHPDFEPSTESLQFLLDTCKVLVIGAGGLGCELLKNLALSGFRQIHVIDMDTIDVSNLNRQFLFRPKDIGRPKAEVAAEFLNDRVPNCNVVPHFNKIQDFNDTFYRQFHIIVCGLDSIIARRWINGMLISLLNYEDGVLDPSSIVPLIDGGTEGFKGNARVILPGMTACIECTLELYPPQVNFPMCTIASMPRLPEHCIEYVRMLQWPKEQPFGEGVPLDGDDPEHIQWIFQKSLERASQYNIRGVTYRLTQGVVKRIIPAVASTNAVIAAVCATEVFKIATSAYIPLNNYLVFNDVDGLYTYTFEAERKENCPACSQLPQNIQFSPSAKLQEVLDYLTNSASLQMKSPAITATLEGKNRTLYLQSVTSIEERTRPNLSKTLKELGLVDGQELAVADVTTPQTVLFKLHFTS
T1 sequence (Q13564 1-534 partner): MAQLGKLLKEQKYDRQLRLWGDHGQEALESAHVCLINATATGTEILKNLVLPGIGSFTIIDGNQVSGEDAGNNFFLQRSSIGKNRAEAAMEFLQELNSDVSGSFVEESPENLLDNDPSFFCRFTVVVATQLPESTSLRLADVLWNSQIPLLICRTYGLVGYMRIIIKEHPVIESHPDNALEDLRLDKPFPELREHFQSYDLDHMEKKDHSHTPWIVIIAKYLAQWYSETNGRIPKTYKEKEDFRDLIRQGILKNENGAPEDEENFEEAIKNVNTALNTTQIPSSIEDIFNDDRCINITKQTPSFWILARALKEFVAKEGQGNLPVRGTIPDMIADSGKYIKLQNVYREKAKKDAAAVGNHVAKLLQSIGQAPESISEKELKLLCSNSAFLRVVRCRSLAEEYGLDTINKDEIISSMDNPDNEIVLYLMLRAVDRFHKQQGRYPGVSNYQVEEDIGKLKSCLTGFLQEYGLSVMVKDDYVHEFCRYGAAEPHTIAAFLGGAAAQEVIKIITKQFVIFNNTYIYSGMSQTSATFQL
Experiment: Nedd8-Activating Enzyme (NAE) HTRF Assay
Type: biochemical
Conditions: 20 μM ATP
Method in brief: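 Recombinant human NAE (NAEα/His-NAEβ from Sf9 cells) at 0.20 nM with 20 μM ATP, 0.01 μM Ubc12-GST and 0.075 μM Nedd8-Flag in HEPES pH 7.5, 105 min at 24° C. EDTA stop; Eu-anti-FLAG/APC-anti-GST HTRF read after 1 h.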

IC50 (bound given in nM) [nM] | IC50 (bound given in μM) [nM] | SMILES
> 500 | < 10000 | COc1ccc2c(c1)[C@@H](Nc1cc(O[C@@H]3C[C@@H](COS(N)(=O)=O)[C@@H](O)C3)ncn1)[C@@H](OC)CC2 [Compound I-149, {(1S,2S,4R)-4-[(6-{[(1R,2S)-2,7-dimethoxy-1,2,3,4-tetrahydronaphthalen-1-yl]amino}-pyrimidin-4-yl)oxy]-2-hydroxycyclopentyl}methyl sulfamate]
≤ 500 |  | CO[C@H]1CC(C)(C)c2ccccc2[C@H]1Nc1cc(O[C@@H]2C[C@@H](COS(N)(=O)=O)[C@@H](O)C2)ncn1 [Compound I-150, {(1S,2S,4R)-2-hydroxy-4-[(6-{[(1R,2S)-2-methoxy-4,4-dimethyl-1,2,3,4-tetrahydronaphthalen-1-yl]amino}pyrimidin-4-yl)oxy]cyclopentyl}methyl sulfamate]
≤ 500 |  | CO[C@@H]1CC(C)(C)c2ccccc2[C@@H]1Nc1cc(O[C@@H]2C[C@@H](COS(N)(=O)=O)[C@@H](O)C2)ncn1 [Compound I-151, {(1S,2S,4R)-2-hydroxy-4-[(6-{[(1S,2R)-2-methoxy-4,4-dimethyl-1,2,3,4-tetrahydronaphthalen-1-yl]amino}pyrimidin-4-yl)oxy]cyclopentyl}methyl sulfamate]

Further lines, the molecule ahead of its results:

SMILES | IC50 (bound given in nM) [nM] | IC50 (bound given in μM) [nM]
COc1ccc2c(c1)[C@H](Nc1cc(O[C@@H]3C[C@@H](COS(N)(=O)=O)[C@@H](O)C3)ncn1)[C@H](OC)CC2 [Compound I-148, {(1S,2S,4R)-4-[(6-{[(1S,2R)-2,7-dimethoxy-1,2,3,4-tetrahydronaphthalen-1-yl]amino}-pyrimidin-4-yl)oxy]-2-hydroxycyclopentyl}methyl sulfamate] | > 500 | < 10000
NS(=O)(=O)OC[C@H]1CC[C@H](Oc2ncnc3[nH]c(-c4cccc5ccccc45)nc23)C1 [Compound I-152, ((1S,3S)-3-{[8-(1-naphthyl)-9H-purin-6-yl]oxy}cyclopentyl)methyl sulfamate] | > 500 | < 10000
NS(=O)(=O)OC[C@@H]1C[C@@H](Nc2ncnc(N[C@H]3CCc4ccccc43)n2)C[C@@H]1O [Compound I-153, [(1S,2S,4R)-4-({4-[(1S)-2,3-dihydro-1H-inden-1-ylamino}-1,3,5-triazin-2-yl}amino)-2-hydroxycyclopentyl]methyl sulfamate] | ≤ 500 | 
